pIC50: −log10 of the molar value. Where two headings read alike, the source gives them in different places.
Tests used:
[1] = system: p-IKKα levels in L363 (NIK translocated multiple myeloma) cells; assay: Effect of compounds on p-IKKα levels in L363 cells (AlphaLISA SureFire Ultra); format: cell-based, human; conditions: BAFF stimulated, MG132, 6 h, average of values, read-out: Assay 2 IC50
Method in brief: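 Inhibition of p-IKKα (Ser176/180) read by AlphaLISA after 6 h, 37 °C compound exposure (11-point 1:3 series, 0.3% DMSO) of L363 cells pre-incubated overnight ± 250 ng/ml BAFF and plated ± BAFF ± 10 μM MG132. Normalised to BAFF/MG132/DMSO and unstimulated controls; IC50 by sigmoidal fitting, duplicates.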

[2] = target: recombinant human NF-kappaB-inducing kinase (NIK/MAP3K14) (Homo sapiens (Human), UniProt Q99558); assay: Inhibition of auto-phosphorylation of recombinant human NIK/MAP3K14 (AlphaScreen); format: biochemical; conditions: NIK auto-phosphorylation, 5 μM ATP, 1 nM NIK, 2 h at 25° C.; average of values
recombinant human NF-kappaB-inducing kinase (NIK/MAP3K14), sequence (Q99558 whole entry): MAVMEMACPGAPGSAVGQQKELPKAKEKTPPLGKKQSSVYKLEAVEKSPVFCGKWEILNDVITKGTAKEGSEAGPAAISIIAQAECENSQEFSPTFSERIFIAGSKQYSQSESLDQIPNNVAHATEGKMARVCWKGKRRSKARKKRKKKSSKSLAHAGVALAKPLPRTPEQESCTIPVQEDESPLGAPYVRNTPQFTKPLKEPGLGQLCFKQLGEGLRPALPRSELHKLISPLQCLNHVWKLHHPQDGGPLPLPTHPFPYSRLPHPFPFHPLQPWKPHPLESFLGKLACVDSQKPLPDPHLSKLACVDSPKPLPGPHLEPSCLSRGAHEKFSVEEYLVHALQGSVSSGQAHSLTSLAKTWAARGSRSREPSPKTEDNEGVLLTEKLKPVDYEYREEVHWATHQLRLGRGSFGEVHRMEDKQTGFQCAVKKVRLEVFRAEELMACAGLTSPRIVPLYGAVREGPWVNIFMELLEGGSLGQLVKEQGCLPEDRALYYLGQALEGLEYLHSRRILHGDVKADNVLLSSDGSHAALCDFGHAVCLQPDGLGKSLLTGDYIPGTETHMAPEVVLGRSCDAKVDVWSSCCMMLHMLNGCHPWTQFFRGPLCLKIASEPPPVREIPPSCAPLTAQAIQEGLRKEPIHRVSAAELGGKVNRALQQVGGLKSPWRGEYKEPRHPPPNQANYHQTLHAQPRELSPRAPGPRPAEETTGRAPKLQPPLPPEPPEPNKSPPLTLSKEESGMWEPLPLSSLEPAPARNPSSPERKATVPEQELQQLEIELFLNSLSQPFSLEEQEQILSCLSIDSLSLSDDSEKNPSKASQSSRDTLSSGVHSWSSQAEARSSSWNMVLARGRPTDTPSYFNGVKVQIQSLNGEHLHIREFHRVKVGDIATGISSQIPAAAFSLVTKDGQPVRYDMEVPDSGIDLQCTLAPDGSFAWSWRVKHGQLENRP
Method in brief: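 AlphaScreen read-out (anti-phospho-IKK Ser176/180 antibody, Protein A acceptor and glutathione donor beads) of NIK auto-phosphorylation. Reaction: 1 nM enzyme, 5 μM ATP, Tris pH 7.5 buffer with Mg2+ and vanadate, 2 h at 25° C., final DMSO 0.7%. IC50 came from a sigmoidal curve fit.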

SMILES	pIC50 ([1]; Homo sapiens, L-363, 6 h)	pIC50 [2]	pIC50 [1]
Cc1nc(-c2cccc(C#C[C@]3(O)CCN(C)C3=O)c2)nc2c(N)nccc12 [Example 37, (R)-3-((3-(8-Amino-4-methylpyrido[3,4-d]pyrimidin-2-yl)phenyl)ethynyl)-3-hydroxy-1-methylpyrrolidin-2-one]	7.46	9.22	
CN1CC[C@@](O)(C#Cc2cccc(-c3nc(C(F)(F)F)c4ccnc(N)c4n3)c2)C1=O [Example 38, (R)-3-((3-(8-Amino-4-(trifluoromethyl)pyrido[3,4-d]pyrimidin-2-yl)phenyl)ethynyl)-3-hydroxy-1-methylpyrrolidin-2-one]	7.40	9.15	
Cc1cnc(N)c2nc(-c3cccc(C#C[C@]4(O)CCN(C)C4=O)c3)ncc12 [Example 39, (R)-3-((3-(8-Amino-5-methylpyrido[3,4-d]pyrimidin-2-yl)phenyl)ethynyl)-3-hydroxy-1-methylpyrrolidin-2-one]	8.05	≥ 9.30	
Cc1ccc(-c2ncc3ccnc(N)c3n2)cc1C#C[C@]1(O)CCN(C)C1=O [Example 40, (R)-3-((5-(8-Aminopyrido[3,4-d]pyrimidin-2-yl)-2-methylphenyl)ethynyl)-3-hydroxy-1-methylpyrrolidin-2-one]	6.68	9.15	
Cc1c(C#C[C@]2(O)CCN(C)C2=O)cccc1-c1ncc2ccnc(N)c2n1 [Example 41, (R)-3-((3-(8-Aminopyrido[3,4-d]pyrimidin-2-yl)-2-methylphenyl)ethynyl)-3-hydroxy-1-methylpyrrolidin-2-one]	< 5.30	7.17	
Cc1cc(C#C[C@]2(O)CCN(C)C2=O)cc(-c2ncc3ccnc(N)c3n2)c1 [Example 42, (R)-3-((3-(8-Aminopyrido[3,4-d]pyrimidin-2-yl)-5-methylphenyl)ethynyl)-3-hydroxy-1-methylpyrrolidin-2-one]	7.54	8.89	
Cc1ccc(C#C[C@]2(O)CCN(C)C2=O)cc1-c1ncc2ccnc(N)c2n1 [Example 43, (R)-3-((3-(8-Aminopyrido[3,4-d]pyrimidin-2-yl)-4-methylphenyl)ethynyl)-3-hydroxy-1-methylpyrrolidin-2-one]	7.22	9.05	
Nc1nccc2cnc(-c3cccc(C#C[C@]4(O)CCc5cccnc54)c3)nc12 [Example 45, (R)-7-[2-[3-(8-Aminopyrido[3,4-d]pyrimidin-2-yl)phenyl]ethynyl]-5,6-dihydrocyclopenta[b]pyridin-7-ol]	7.77	≥ 9.30	
Cc1nc(-c2cccc(C#C[C@@](C)(O)c3nccs3)c2)nc2c(N)nccc12 [Example 48, (R)-4-(3-(8-Amino-4-methylpyrido[3,4-d]pyrimidin-2-yl)phenyl)-2-(thiazol-2-yl)but-3-yn-2-ol]	7.80	≥ 9.30	
C[C@@](O)(C#Cc1cccc(-c2nc(C(F)(F)F)c3ccnc(N)c3n2)c1)c1nccs1 [Example 49, (R)-4-(3-(8-Amino-4-(trifluoromethyl)pyrido[3,4-d]pyrimidin-2-yl)phenyl)-2-(thiazol-2-yl)but-3-yn-2-ol]	6.89	8.60	
Cc1cnc(N)c2nc(-c3cccc(C#C[C@@](C)(O)c4nccs4)c3)ncc12 [Example 50, (R)-4-(3-(8-Amino-5-methylpyrido[3,4-d]pyrimidin-2-yl)phenyl)-2-(thiazol-2-yl)but-3-yn-2-ol]	7.77	≥ 9.30	
Cc1cc2cnc(-c3cccc(C#C[C@@](C)(O)c4nccs4)c3)nc2c(N)n1 [Example 51, (R)-4-(3-(8-Amino-6-methylpyrido[3,4-d]pyrimidin-2-yl)phenyl)-2-(thiazol-2-yl)but-3-yn-2-ol]	6.32	9.00	
Cc1cc(C#C[C@]2(O)CCc3cccnc32)cc(-c2ncc3ccnc(N)c3n2)c1 [Example 52, (R)-7-[2-[3-(8-Aminopyrido[3,4-d]pyrimidin-2-yl)-5-methyl-phenyl]ethynyl]-5,6-dihydrocyclopenta[b]pyridin-7-ol]	6.96	8.60	
COc1ccc(C#C[C@]2(O)CCN(C)C2=O)cc1-c1ncc2ccnc(N)c2n1 [Example 53, (R)-3-((3-(8-Aminopyrido[3,4-d]pyrimidin-2-yl)-4-methoxyphenyl)ethynyl)-3-hydroxy-1-methylpyrrolidin-2-one]	7.31	8.70	
CC(C)Cc1ccc(C#C[C@]2(O)CCN(C)C2=O)cc1-c1ncc2ccnc(N)c2n1 [Example 54, (R)-3-((3-(8-Aminopyrido[3,4-d]pyrimidin-2-yl)-4-isobutylphenyl)ethynyl)-3-hydroxy-1-methylpyrrolidin-2-one]	6.55	8.00	
CN1CC[C@@](O)(C#Cc2cccc(-c3nc4c(N)nccc4c(=O)[nH]3)c2)C1=O [Example 55, (R)-8-Amino-2-(3-((3-hydroxy-1-methyl-2-oxopyrrolidin-3-yl)ethynyl)phenyl)pyrido[3,4-d]pyrimidin-4(3H)-one]	7.54	≥ 9.30	
CN1CC[C@@](O)(C#Cc2ccc(OC(F)(F)F)c(-c3ncc4ccnc(N)c4n3)c2)C1=O [Example 56, (R)-3-((3-(8-Aminopyrido[3,4-d]pyrimidin-2-yl)-4-(trifluoromethoxy)phenyl)ethynyl)-3-hydroxy-1-methylpyrrolidin-2-one]	7.44	8.70	
CN1CC[C@@](O)(C#Cc2cccc(-c3nc(N4CCOCC4)c4ccnc(N)c4n3)c2)C1=O [Example 57, (R)-3-((3-(8-Amino-4-morpholinopyrido[3,4-d]pyrimidin-2-yl)phenyl)ethynyl)-3-hydroxy-1-methylpyrrolidin-2-one]	7.46	8.89	
CN1CC[C@@](O)(C#Cc2cccc(-c3nc(N(C)C)c4ccnc(N)c4n3)c2)C1=O [Example 58, (R)-3-((3-(8-Amino-4-(dimethylamino)pyrido[3,4-d]pyrimidin-2-yl)phenyl)ethynyl)-3-hydroxy-1-methylpyrrolidin-2-one]	7.82	9.15	
Cc1nc(-c2cccc(C#C[C@]3(O)CCc4cccnc43)c2)nc2c(N)nccc12 [Example 60, (R)-7-((3-(8-Amino-4-methylpyrido[3,4-d]pyrimidin-2-yl)phenyl)ethynyl)-6,7-dihydro-5H-cyclopenta[b]pyridin-7-ol]	7.57	9.10	
Nc1nccc2c(C(F)(F)F)nc(-c3cccc(C#C[C@]4(O)CCc5cccnc54)c3)nc12 [Example 61, (R)-7-((3-(8-Amino-4-(trifluoromethyl)pyrido[3,4-d]pyrimidin-2-yl)phenyl)ethynyl)-6,7-dihydro-5H-cyclopenta[b]pyridin-7-ol]	6.77	8.40	
Cc1cnc(N)c2nc(-c3cccc(C#C[C@]4(O)CCc5cccnc54)c3)ncc12 [Example 62, (R)-7-((3-(8-Amino-5-methylpyrido[3,4-d]pyrimidin-2-yl)phenyl)ethynyl)-6,7-dihydro-5H-cyclopenta[b]pyridin-7-ol]	7.66	≥ 9.30	
Cc1cc2cnc(-c3cccc(C#C[C@]4(O)CCc5cccnc54)c3)nc2c(N)n1 [Example 63, (R)-7-((3-(8-amino-6-methylpyrido[3,4-d]pyrimidin-2-yl)phenyl)ethynyl)-6,7-dihydro-5H-cyclopenta[b]pyridin-7-ol]	6.85	8.85	
Nc1nccc2cnc(-c3cccc(C#C[C@@]4(O)CCn5ccnc54)c3)nc12 [Example 64, (S)-7-[2-[3-(8-Aminopyrido[3,4-d]pyrimidin-2-yl)phenyl]ethynyl]-5,6-dihydropyrrolo[1,2-a]imidazol-7-ol]	6.14	7.51	
Cc1ccc(C#C[C@]2(O)CCN(C)C2=O)cc1-c1ncc2c(C)cnc(N)c2n1 [Example 65, (R)-3-[2-[3-(8-Amino-5-methyl-pyrido[3,4-d]pyrimidin-2-yl)-4-methyl-phenyl]ethynyl]-3-hydroxy-1-methyl-pyrrolidin-2-one]	7.32	9.00	
Cc1ccc(C#C[C@@](C)(O)c2nccs2)cc1-c1ccc2ccnc(N)c2c1 [Example 68, (R)-4-[3-(1-Amino-7-isoquinolyl)-4-methyl-phenyl]-2-thiazol-2-yl-but-3-yn-2-ol]	< 5.30	7.26	
Cc1ccc(C#C[C@@](C)(O)c2nccs2)cc1-c1ncc2ccnc(N)c2n1 [Example 69, (R)-4-(3-(8-Aminopyrido[3,4-d]pyrimidin-2-yl)-4-methylphenyl)-2-(thiazol-2-yl)but-3-yn-2-ol]	6.82	9.00	
[2H]C([2H])([2H])N1CC[C@@](O)(C#Cc2ccc(C)c(-c3ccc4ccnc(N)c4c3)c2)C1=O [Example 70, (R)-3-[2-[3-(1-Amino-7-isoquinolyl)-4-methyl-phenyl]ethynyl]-3-hydroxy-1-(trideuteriomethyl)pyrrolidin-2-one]		7.59	5.66
Cc1nnc([C@](C)(O)C#Cc2ccc(C)c(-c3ncc4ccnc(N)c4n3)c2)o1 [Example 74, (R)-4-(3-(8-Aminopyrido[3,4-d]pyrimidin-2-yl)-4-methylphenyl)-2-(5-methyl-1,3,4-oxadiazol-2-yl)but-3-yn-2-ol]	5.53	7.25	
Cc1ccc(C#C[C@]2(O)CCc3cccnc32)cc1-c1ncc2ccnc(N)c2n1 [Example 75, (R)-7-((3-(8-Aminopyrido[3,4-d]pyrimidin-2-yl)-4-methylphenyl)ethynyl)-6,7-dihydro-5H-cyclopenta[b]pyridin-7-ol]	7.08	8.89	
